Measurements from patent US10092648B2, “Selective glucagon-like-peptide-2 (GLP-2) analogues” (Zealand Pharma A/S, priority 2006, dated 2018).
Like-named read-outs stand apart in the source and are kept apart here.

Columns and labels:
[1] = amino acid side-chain; defined by W. D. Stein 1967; cited from earlier work
[2] = biological target: T1, hGLP-2 receptor (Homo sapiens, UniProt O95838); assay: In vitro screening for agonism on the GLP-2 receptor recombinantly expressed in BHK-21 cells (CRE-luciferase reporter); type: cell-based
T1 construct: expressed in transfected cells; host or cells: BHK-21 (C13) cells, transient transfection with Lipofectamine 2000
T1 sequence (O95838 1-553): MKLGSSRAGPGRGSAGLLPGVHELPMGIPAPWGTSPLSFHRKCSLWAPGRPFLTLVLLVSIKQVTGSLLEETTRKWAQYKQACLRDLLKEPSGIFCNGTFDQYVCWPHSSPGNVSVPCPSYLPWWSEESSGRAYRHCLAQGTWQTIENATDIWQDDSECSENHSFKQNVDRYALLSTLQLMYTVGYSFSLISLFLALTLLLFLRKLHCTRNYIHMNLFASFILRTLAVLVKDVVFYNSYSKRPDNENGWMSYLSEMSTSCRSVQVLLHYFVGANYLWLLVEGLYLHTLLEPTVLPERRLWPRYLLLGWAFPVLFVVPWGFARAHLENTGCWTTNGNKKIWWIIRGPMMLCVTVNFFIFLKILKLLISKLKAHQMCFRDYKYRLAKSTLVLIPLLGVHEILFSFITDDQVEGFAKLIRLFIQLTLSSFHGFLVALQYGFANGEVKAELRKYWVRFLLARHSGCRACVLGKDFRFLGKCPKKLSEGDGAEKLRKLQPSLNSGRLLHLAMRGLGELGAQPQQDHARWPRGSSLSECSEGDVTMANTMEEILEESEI
Description: The screening was done using BHK21 cells transiently transfected with GLP-2 receptor and the CRE-luciferase reporter gene construct. Dose-response curves and EC50 values were determined using seven concentrations from 10 fM to 10 nM and triplicate points for each concentration. Control peptide was used on all test plates. BHK-21 cells are seeded in 10 cm TC-Petri dishes and grown to 70-80% confluency. Subsequently, medium is changed to serum-free transfection medium. DNA (7.5 μg hGLP-2 receptor vector and 7.5 μg CRE-luciferase vector) and Lipofectamine 2000 are diluted in OptiMEM, combined, and added to the cells after 20-30 min. Cells are incubated in the incubator at 37° C., 5% CO2 for 4 hr, trypsinized, and reseeded at 35,000 cells per well in 96-well plates. Cells are incubated overnight in full growth medium in order to allow expression of the transgenes. […] Baseline activity is controled with stimulation buffer alone. These solutions are pre-warmed to 37° C. for 30 min. Cells are rinsed with pre-warmed (37° C.) stimulation buffer, and incubated with 100 μl of the pre-warmed peptide dilutions and control for 5 hr at 37° C., 5% CO2. The LucLite enzyme substrate/lysis buffer is prepared shortly before the end of the incubation. 100 μl LucLite substrate are added to each well, and light emission is counted on a suitable counter (e.g. Wallac VictorII). EC50 values are derived from the raw data by fitting with a four parameter logistic equation (Microcal Origin 5.0 or GraphPad 4).

[3] = tested on: male C57BL mice; assay: In vivo stimulation of intestinal growth, 800 nmol/kg (Example 10); parameters: key to Small intestine-colon sensitivity index: (SI/Colon) of compound divided by (SI/Colon) of reference GLP-2; conditions: 800 nmol/kg s.c. once daily for 3 days; for Sensitivity index Si/Colon / Sensitivity index Stomach/Co: relative to 1559; for Colon: colon mass relative to BW, % vs. [Gly2]GLP-2; for SI (% vs. [Gly2]GLP-2: small intestine mass relative to BW, [Gly2]GLP-2 = 100%
Text: Individual groups (n=6-10) of mice were given 800 nmol/kg of each compound, s.c, once daily for three consecutive days. For comparison purposes other groups of animals were given either an equimolar dose of [[…]]GLP-2 (ZP1559) or vehicle (phosphate buffered saline, pH 7.4) in the same dosing regimen Twenty-four hours after the last dose of compound had been given the mice were sacrificed and the small intestine (from the pylorus to the cecum) and the colon (intestine distal to cecum) was emptied and weighed. To correct for slight difference in body weight (BW), the organ mass of the small intestine (SI) and colon were expressed relative to BW. The non-selective reference compound [[…]]GLP-2 has been reported to stimulate gastrointestinal growth in both esophagus, stomach, small intestine and colon and to evaluate differences in growth pattern induced by compounds, the small intestine-colon sensitivity index of compound X was calculated as: […]

[4] = tested on: male C57BL mice; assay: In vivo stimulation of stomach growth, 200 nmol/kg (Example 12)
Description: The effects of the test compounds according to the invention were determined based on the ability of the peptides to selectively increase stomach mass, relative to vehicle control. The ability of the present compounds (ZP2395, ZP2396, ZP2400, ZP2412, ZP2394 and ZP2401) to selectively stimulate stomach mass, relative to colon mass was determined in male C57BL mice. Individual groups (n=6-10) of mice were given 200 nmol/kg of each compound, s.c, once daily for three consecutive days. For comparison purposes other groups of animals were given either an equimolar dose of [[…]]GLP-2 or vehicle (phosphate buffered saline, pH 7.4) in the same dosing regimen. Twenty-four hours after the last dose of compound had been given the mice were sacrificed and the stomach and small intestine (from the pylorus to the ileocaecal junction) emptied and weighed. To correct for slight difference in body weight (BW), the organ mass of the stomach is presented relative to BW. […] To evaluate the differential growth pattern induced by ZP compounds, compared to [[…]]GLP-2, on the stomach, the stomach-colon sensitivity index of compound X was calculated as: (Stomach/Colon)x/Stomach/(Colon)[[…]]GLP-2% Compounds with a stomach/colon sensitivity greater than or equal to 1.05 were considered relatively selective for the stomach.

[5] = tested on: male C57BL mice; assay: In vivo stimulation of intestinal growth, 200 nmol/kg (Example 11)
Description: The ability of further compounds to selectively stimulate small intestinal mass, relative to colon mass was determined in male C57BL mice. A similar protocol was used to that described above in Example 10 except that 200 nmol/kg of each compound was administered per day. Thus, individual groups (n=6-10) of mice were given 200 nmol/kg of each compound, s.c, once daily for three consecutive days. Other groups of animals were given either an equimolar dose of [[…]]GLP-2 (reference compound) or vehicle (phosphate buffered saline, pH 7.4; negative controls) in the same dosing regimen. Twenty-four hours after the last dose of compound the mice were sacrificed and the stomach, small intestine and the colon emptied and weighed.

[6] = biological target: T2, hGLP-2 receptor (human, UniProt O95838 1-553); assay: cell-based or functional assay
T2 sequence (looked up): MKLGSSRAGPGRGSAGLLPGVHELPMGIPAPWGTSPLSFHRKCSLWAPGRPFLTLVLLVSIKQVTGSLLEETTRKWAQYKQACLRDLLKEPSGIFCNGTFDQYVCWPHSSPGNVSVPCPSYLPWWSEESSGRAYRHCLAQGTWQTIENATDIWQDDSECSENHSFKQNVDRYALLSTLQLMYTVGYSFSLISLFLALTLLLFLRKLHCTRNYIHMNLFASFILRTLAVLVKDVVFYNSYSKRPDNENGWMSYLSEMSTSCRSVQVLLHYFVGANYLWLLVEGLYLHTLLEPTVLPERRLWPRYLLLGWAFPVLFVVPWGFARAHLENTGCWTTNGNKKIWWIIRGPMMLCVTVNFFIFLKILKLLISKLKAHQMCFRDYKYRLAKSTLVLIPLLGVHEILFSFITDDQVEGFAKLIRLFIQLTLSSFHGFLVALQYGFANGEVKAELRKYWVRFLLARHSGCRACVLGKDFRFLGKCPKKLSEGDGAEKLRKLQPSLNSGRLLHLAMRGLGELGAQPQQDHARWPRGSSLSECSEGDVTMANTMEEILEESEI

[7] = BHK21 cells transiently transfected with GLP-2 receptor and CRE-luciferase, 10 fM to 10 nM, read-out: pEC50 (converted)

Molecule: NC(=O)CC[C@H](N)C(=O)O [Gln]
- HBP for the individual amino acids [1]: 3

Molecule: O=C(O)[C@@H]1CCCN1 [Pro]
- HBP for the individual amino acids [1]: 0

Molecule: CSCC[C@H](N)C(=O)O [Met]
- HBP for the individual amino acids [1]: 0

Molecule: N[C@@H](CS)C(=O)O [Cys]
- HBP for the individual amino acids [1]: 0

Molecule: NCC(=O)O [Gly]
- HBP for the individual amino acids [1]: 0

Molecule: N[C@@H](CO)C(=O)O [Ser]
- HBP for the individual amino acids [1]: 2

Molecule: C[C@@H](O)[C@H](N)C(=O)O [Thr]
- HBP for the individual amino acids [1]: 2

Molecule: H-HGEGSFSDELETILEELAAEDFIEWLIETKITD-NH2 [ZP2266]
- EC50 [2, 7]: 0.558 nM
- Colon-BW, compared to 1559 in % [3]: 100.6%
- Organ selectivity (FIG. 8, unselective compounds) [3]: unselective for the small intestine, colon or stomach
- SI-BW, compared to 1559 in % [3]: 95.3%
- Sto-BW, compared to 1559 in % [3]: 93.6%
- Sensitivity index Si/Colon [3]: 0.95
- Sensitivity index Stomach/Co [3]: 0.93
- Colon [3]: 101 ± 2%
- SI (% vs. [Gly2]GLP-2 [3]: 95 ± 1%

Molecule: H-HGEGSFSDELSTILESLAASDFISWLISTKITD-NH2 [ZP2263]
- EC50 [2, 7]: 0.0145 nM

Molecule: N[C@@H](Cc1ccc(O)cc1)C(=O)O [Tyr]
- HBP for the individual amino acids [1]: 2

Molecule: N[C@@H](Cc1ccccc1)C(=O)O [Phe]
- HBP for the individual amino acids [1]: 0

Molecule: NC(=O)C[C@H](N)C(=O)O [Asn]
- HBP for the individual amino acids [1]: 3

Molecule: N=C(N)NCCC[C@H](N)C(=O)O [Arg]
- HBP for the individual amino acids [1]: 3

Molecule: H-HGEGSFSDELNTILESLAASDFISWLISTKITD-NH2 [ZP2270]
- EC50 [2]: 0.0589 nM

Molecule: H-HGEGSFSDELSTILESLAAADFIAWLIATKITD-NH2 [ZP2267]
- EC50 [2, 7]: 0.0135 nM
- Colon-BW, compared to 1559 in % [3]: 109.4%
- Organ selectivity (FIG. 8, unselective compounds) [3]: unselective for the small intestine, colon or stomach
- SI-BW, compared to 1559 in % [3]: 108.5%
- Sto-BW, compared to 1559 in % [3]: 85.9%
- Sensitivity index Si/Colon [3]: 0.99
- Sensitivity index Stomach/Co [3]: 0.79
- Colon [3]: 109 ± 4%
- SI (% vs. [Gly2]GLP-2 [3]: 108 ± 2%

Molecule: C[C@H](N)C(=O)O [Ala]
- HBP for the individual amino acids [1]: 0

Molecule: CC(C)[C@H](N)C(=O)O [Val]
- HBP for the individual amino acids [1]: 0

Molecule: H-HGEGSFSSELSTILDALAARDFIAWLIATKITDK-OH [ZP2242]
- Sensitivity index Stomach/Co ([4]; ratio Stomach-BW / Colon-BW): 0.93
- Stomach-BW, compared to 1559 in % ([4]; stomach weight relative to body weight, relative to ZP1559): 99.6%
- Colon-BW, compared to 1559 in % ([5]; colon weight relative to body weight, relative to ZP1559): 106.6%
- Sensitivity index Si/Co ([5]; ratio SI-BW / Colon-BW): 1.05
- SI-BW, compared to 1559 in % ([5]; small intestine weight relative to body weight, relative to ZP1559): 111.7%
- Colon-BW, compared to 1559 in % [3]: 106.6%
- Preferential stimulation of epithelial growth in the small intestine (summary) [3]: preferentially stimulating epithelial growth in the small intestine
- SI-BW, compared to 1559 in % [3]: 111.7%
- Sto-BW, compared to 1559 in % [3]: 99.6%
- Sensitivity index Si/Colon [3]: 1.05
- Sensitivity index Stomach/Co [3]: 0.93
- Colon [3]: 107 ± 3%
- SI (% vs. [Gly2]GLP-2 [3]: 111 ± 2%

Molecule: NCCCC[C@H](N)C(=O)O [Lys]
- HBP for the individual amino acids [1]: 2

Molecule: N[C@@H](Cc1c[nH]cn1)C(=O)O [His]
- HBP for the individual amino acids [1]: 1

Molecule: CC(C)C[C@H](N)C(=O)O [Leu]
- HBP for the individual amino acids [1]: 0

Molecule: N[C@@H](CC(=O)O)C(=O)O [Asp]
- HBP for the individual amino acids [1]: 3

Molecule: N[C@@H](CCC(=O)O)C(=O)O [Glu]
- HBP for the individual amino acids [1]: 3

Molecule: N[C@@H](Cc1c[nH]c2ccccc12)C(=O)O [Trp]
- HBP for the individual amino acids [1]: 1

Molecule: H-[Gly2]hGLP-2-OH (H-HGDGSFSDEMNTILDNLAARDFINWLIQTKITD-OH) [[Gly2]GLP-2, GLP-2 with alanine in position 2 replaced with glycine, reference compound]
- Small intestine-colon sensitivity index ([3]; (SI/Colon)x/(SI/Colon)[Gly2]GLP-2): 1.00 ± 0.02
- Colon [3]: 100 ± 2%
- SI (% vs. [Gly2]GLP-2 [3]: 100 ± 1%

Molecule: H-HGEGSFSDELATILESLAAADFISWLIATKITD-NH2 [ZP2272]
- pEC50 (CRE-luciferase reporter, BHK-21 cells transiently transfected with hGLP-2 receptor) [6]: 11.3

Molecule: H-HGEGSFSDELSTILESLAASDFISWLISTKITD-NH2 [ZP2263]
- pEC50 (CRE-luciferase reporter, BHK-21 cells transiently transfected with hGLP-2 receptor) [6]: 10.8

Molecule: H-HGEGSFSDELATILEALAASDFISWLISTKITD-NH2 [ZP2268]
- pEC50 (CRE-luciferase reporter, BHK-21 cells transiently transfected with hGLP-2 receptor) [6]: 11.2

Molecule: H-HGEGSFSDELSTILESLAAADFIAWLIATKITD-NH2 [ZP2267]
- pEC50 (CRE-luciferase reporter, BHK-21 cells transiently transfected with hGLP-2 receptor) [6]: 10.9

Molecule: H-HGEGSFSDELATILEALAAADFIAWLIATKITD-NH2 [ZP2264]
- pEC50 (CRE-luciferase reporter, BHK-21 cells transiently transfected with hGLP-2 receptor) [6]: 11.5

Molecule: H-HGEGSFSDELETILEELAAEDFIEWLIETKITD-NH2 [ZP2266]
- pEC50 (CRE-luciferase reporter, BHK-21 cells transiently transfected with hGLP-2 receptor) [6]: 9.25

Molecule: H-HGEGSFSDELKTILESLAAADFIEWLIQTKITD-NH2 [ZP2269]
- pEC50 (CRE-luciferase reporter, BHK-21 cells transiently transfected with hGLP-2 receptor) [6]: 10

Molecule: H-HGEGSFSSELSTILDALAARDFIAWLIATKITDK-OH [ZP2242]
- pEC50 (CRE-luciferase reporter, BHK-21 cells transiently transfected with hGLP-2 receptor) [6]: 12.4

Molecule: H-HGEGSFSDELNTILESLAASDFISWLISTKITD-NH2 [ZP2270]
- pEC50 (CRE-luciferase reporter, BHK-21 cells transiently transfected with hGLP-2 receptor) [6]: 10.2
